In patent US8106092B2, “Treatment of solid cancers” (priority 2004, dated 2012):

Columns and labels:
Type in all cases: in vivo, C57BL/6 mice
B16-OVA tumors = experiment: PEP005-mediated cure of primaries plus DC therapy, growth of secondary tumors, s.c. B16-OVA model; conditions: Log rank p<0.001 (PEP005) and =0.002 (DC)
Method: (§1) FIGS. 13A to C are graphical representations showing synergistic effects between PEP005-mediated cure of primaries and DC therapy on the growth of secondary tumors and on CD8^+ T-cell induction. (A) On d−3 C57BL/6 mice where inoculated with 2×10^6 B16-OVA cells on the right flank (primary tumor) and 2×10^4 B16-OVA cells on the left flank (secondary tumor). On d0 and d1 the primary B16-OVA tumors, which has reach 30.4 mm^2+SD6 were cured with i.t. injections of 25 μg of PEP005 formulated in PEG400. On d4 and d11 mice received DC therapy using DC2.4 cells pulsed with SVYDFFVWL [SEQ ID NO:1], KVPRNQDWL [SEQ ID NO:4] and SIINFEKL [SEQ ID NO:2] peptides, and ovalbumin (n=12, PEP005+DC). […] Animal groups were established and treated as in (A) except that on d12 mice were sacrificed and splenocytes analyzed in an ex vivo ELISPOT assay for responses to SVYDFFVWL [SEQ ID NO:1], KVPRNQDWL [SEQ ID NO:4] and SIINFEKL [SEQ ID NO:2] […]
To determine whether the immunostimulatory activity of PEP005-mediated cure of primary tumors would synergize with DC therapy to reduce growth of secondaries, four groups of C57BL/6 mice were established using the s.c. B16-OVA model. […] The growth of secondary tumors was monitored over time.

[1] = tested on: B16-OVA-specific CD8^+ T-cells; experiment: B16-OVA-specific CD8+ T-cell responses, ex vivo ELISPOT on d12; conditions: d12 splenocytes, responses to SVYDFFVWL, KVPRNQDWL and SIINFEKL
Method: as §1
To determine whether the synergistic effect of PEP005 and DC therapies seen in […] correlated with anti-cancer CD8^+ T-cell induction, a group of animals were established and treated as described for FIG. 13A except the animals were killed on d12 and their splenocytes analyzed for B16-OVA-specific CD8^+ T-cells responses. […] In the absence of treatment no significant B16-OVA-specific CD8^+ T-cell responses were detected (FIG. 13C, Controls).

B16 tumors = experiment: Example 2: sub-optimal topical PEP005 combined with M720/B16 vaccination and DC+IL-2, cure of primary B16 tumors
Text: To determine whether PEP005 (ingenol-3-angelate) treatment could synergize with (i) vaccine-induced anti-cancer CD4^+ T-cells/antibodies and/or (ii) DC vaccine-induced anti-cancer CD8^+ T-cells, topical PEP005 treatment was combined with vaccination using (i) B16 lysate emulsified in Montanide ISA 720 adjuvant (M720/B16) and (ii) DC2.4 cells sensitized with TRP-2 peptide, SVYDFFVWL [SEQ ID NO:1] (a dominant CD8^+ T-cell epitope for anti-B16 CM^+ T-cells) and activated with LPS (Camporeale et al, Can Res 63:3688, 2003) (DC). The latter group also received IL-2 to maintain the vaccine induced T-cells. The topical PEP005 dose (10 μg/mouse) was known not to be sufficient to cure most B16 tumors of reasonable size. Thus, this experiment sought to determine whether improvements in B16 cure rate could be achieved when sub-optimal topical PEP005 treatment was combined with other immune-based therapies.
B16 tumors were injected 2×10^4 s.c. in groups (n=5 per group) of C57BL/6 mice and after 12 days (d0) had reached 8-12 mm^2 in size. The groups of animal received the following treatments:
PEP005: On d0, the tumors in this group were treated topically with PEP005, 10 μg/mouse in 10 μl isopropanol gel.
PEP005+M720: On d−5 (day minus 5), the animals had received Montanide ISA 720 adjuvant (M720) emulsified 7:3 v:v (Elliott et al, Vaccine. 17(15-16):2009-2019, 1999) with water (volume 100 μl/mouse s.c.) and on d0, the tumors in this group were treated topically with PEP005.
PEP005+M720/B16: On d−5, the animals had received Montanide ISA 720 adjuvant (M720) emulsified 7:3 v:v (Elliott et al, 1999 supra) with B16 cell lysate (3×10^5 B16 cells per mouse s.c., volume 100 μl/mouse) and on d0, the tumors in this group were treated topically with PEP005. A modality was known to induce CD4^+ T-cells specific for B16.
PEP005+M720/B16+DC+IL-2: On d0, the tumors in this group were treated topically with PEP005 and had been given M720/B16 as for Group 4. The group also received on d0 DC in the form of a DC cell line, DC2.4. These cells were (i) sensitized with TRP-2 peptide, SVYDFFVWL [SEQ ID NO:1] […]

## C/C=C(/C)C(=O)O[C@H]1C(C)=C[C@]23C(=O)[C@@H](C=C(CO)[C@@H](O)[C@]12O)[C@H]1[C@@H](C[C@H]3C)C1(C)C [PEP005, ingenol-3-angelate]
B16-OVA tumors
  growth of secondaries vs no treatment controls: significantly reduced the growth of secondaries
[1]
  B16-OVA-specific CD8+ T-cell responses: about 120 spots/10^6 splenocytes
B16 tumors; all PEP005 treated tumors
  regression of treated tumors: regressed by treatment to below detectable size
B16 tumors; day (d) after treatment on d0, growth curves FIG. 7
  day on which tumor became visible again / emerged: 4-5
B16 tumors; topical 10 μg PEP005, combined PEP005/PEP005+M720 group n=10, tumors 8-12 mm^2
  treated tumors re-emerging (failure rate): 90%
